The target in the experiment is HLA B*1501 (Homo sapiens, UniProt P01889, A329T/A93T/A95T/C349S/D201E/D98Y/E187L/E204Q/E69M/E70A/K202T/N87E/Q94N/R155S/R180W/S121R/S35A/S48A/V306I/V36M/Y140S/Y91S). Briefly: biochemical. The experiment is classed as binding.

Where a SMILES comes first, the peptide text is derived from it.

As to `CC(C)C[C@H](NC(=O)[C@H](CCCCN)NC(=O)[C@H](CS)NC(=O)[C@H](CC(C)C)NC(=O)[C@@H](N)CO)C(=O)N[C@@H](CC(N)=O)C(=O)N[C@@H](CC(N)=O)C(=O)N[C@H](C(=O)N[C@@H](Cc1ccccc1)C(=O)O)C(C)C` [3102.0874] (H-SLCKLNNVF-OH), half-maximal inhibition (IC50) required 16 nM.

In the case of `CC[C@H](C)[C@H](NC(=O)[C@H](C)NC(=O)[C@H](CC(C)C)NC(=O)[C@@H](N)CC(C)C)C(=O)N[C@@H](CO)C(=O)N[C@@H](C)C(=O)N[C@H](C(=O)N[C@@H](Cc1ccc(O)cc1)C(=O)N[C@@H](Cc1ccccc1)C(=O)O)C(C)C` [3102.0875] (H-LLAISAVYF-OH), the IC50 worked out at 32 nM.

As to `CC[C@H](C)[C@H](NC(=O)[C@H](CC(N)=O)NC(=O)[C@@H]1CCCN1C(=O)[C@H](CS)NC(=O)[C@@H](NC(=O)[C@@H](N)CCSC)C(C)C)C(=O)N[C@@H](CC(N)=O)C(=O)N[C@@H](C)C(=O)N[C@@H](Cc1ccccc1)C(=O)O` [3102.0876] (H-MVCPNINAF-OH), it took 22 nM to reach half-maximal inhibition (IC50).

`CSCC[C@H](NC(=O)[C@H](Cc1ccc(O)cc1)NC(=O)[C@H](CO)NC(=O)[C@H](CCC(=O)O)NC(=O)[C@H](Cc1ccc(O)cc1)NC(=O)[C@H](CS)NC(=O)[C@H](Cc1c[nH]cn1)NC(=O)[C@H](CC(C)C)NC(=O)[C@@H](N)CCSC)C(=O)O` [3102.0879] (H-MLHCYESYM-OH) displayed an IC50 of 97 nM.

On to `CSCC[C@H](NC(=O)[C@H](Cc1c[nH]cn1)NC(=O)[C@H](CS)NC(=O)[C@@H](NC(=O)[C@H](CC(N)=O)NC(=O)[C@H](CC(N)=O)NC(=O)[C@@H](NC(=O)[C@H](CO)NC(=O)[C@@H](N)C(C)C)C(C)C)C(C)C)C(=O)O` [3102.0880] (H-VSVNNVCHM-OH), for which the IC50 came out at 14 nM.

`CSCC[C@H](NC(=O)[C@@H](N)C(C)C)C(=O)N[C@H](C(=O)N[C@@H](CCCCN)C(=O)N[C@@H](Cc1c[nH]c2ccccc12)C(=O)N[C@@H](CS)C(=O)N[C@@H](C)C(=O)N1CCC[C@H]1C(=O)N[C@@H](Cc1ccccc1)C(=O)O)[C@@H](C)O` [3102.0886] (H-VMTKWCAPF-OH) had an IC50 of 1.9 nM.

With `CSCC[C@H](NC(=O)[C@H](C)NC(=O)[C@H](CCCCN)NC(=O)[C@H](Cc1ccccc1)NC(=O)[C@@H](NC(=O)[C@@H](N)CC(N)=O)C(C)C)C(=O)N[C@@H](CCC(=O)O)C(=O)N[C@H](C(=O)N[C@@H](Cc1ccccc1)C(=O)O)[C@@H](C)O` [3102.0887] (H-NVFKAMETF-OH), the IC50 turned out to be 23 nM.

In the case of `CC[C@H](C)[C@H](NC(=O)[C@H](CCC(=O)O)NC(=O)[C@@H](N)CO)C(=O)N[C@@H](CCCNC(=N)N)C(=O)N[C@@H](Cc1c[nH]c2ccccc12)C(=O)N[C@@H](CCC(=O)O)C(=O)N[C@@H](CCC(=O)O)C(=O)N[C@@H](CO)C(=O)N[C@@H](Cc1ccccc1)C(=O)O` [3102.0890] (H-SEIRWEESF-OH), half-maximal inhibition (IC50) required 47 nM.

In the case of `CC[C@H](C)[C@H](N)C(=O)N[C@H](C(=O)N[C@H](C(=O)N1CCC[C@H]1C(=O)N[C@@H](Cc1ccccc1)C(=O)N[C@H](C(=O)N[C@@H](C)C(=O)N[C@@H](Cc1ccc(O)cc1)C(=O)N[C@@H](Cc1ccccc1)C(=O)O)[C@@H](C)CC)[C@@H](C)CC)[C@@H](C)CC` [3102.0892] (H-IIIPFIAYF-OH), the half-inhibitory concentration (IC50) stood at 1.6 nM.

As to `CSCC[C@H](N)C(=O)N[C@H](C(=O)N[C@@H](Cc1ccc(O)cc1)C(=O)N[C@@H](CCCCN)C(=O)N[C@@H](CC(C)C)C(=O)N[C@H](C(=O)N[C@@H](CC(C)C)C(=O)N[C@@H](CC(C)C)C(=O)N[C@@H](Cc1ccccc1)C(=O)O)C(C)C)C(C)C` [3102.0893] (H-MVYKLVLLF-OH), the IC50 was determined as 71 nM.

Take `CC[C@H](C)[C@H](NC(=O)[C@H](Cc1c[nH]cn1)NC(=O)[C@H](CC(=O)O)NC(=O)[C@H](Cc1c[nH]cn1)NC(=O)[C@H](CO)NC(=O)[C@@H](N)Cc1ccccc1)C(=O)NCC(=O)N[C@@H](Cc1c[nH]cn1)C(=O)NCC(=O)O` [3102.0897] (H-FSHDHIGHG-OH): half-maximal inhibition (IC50) required 32 nM.

As for `CC[C@H](C)[C@H](NC(=O)[C@H](CCSC)NC(=O)[C@@H](N)CCSC)C(=O)N[C@@H](CC(=O)O)C(=O)N[C@@H](CC(=O)O)C(=O)N[C@@H](Cc1ccccc1)C(=O)NCC(=O)N[C@H](C(=O)N[C@@H](C)C(=O)O)[C@@H](C)O` [3102.0898] (H-MMIDDFGTA-OH), half-maximal inhibition (IC50) required 7.6 nM.

`CC[C@H](C)[C@H](NC(=O)[C@@H](N)CC(C)C)C(=O)N[C@@H](CC(N)=O)C(=O)N[C@@H](CC(N)=O)C(=O)NCC(=O)N[C@@H](CCCCN)C(=O)N[C@@H](CS)C(=O)N[C@H](C(=O)N[C@@H](Cc1ccccc1)C(=O)O)[C@@H](C)O` [3102.0899] (H-LINNGKCTF-OH) showed an IC50 of 62 nM.

On to `CC[C@H](C)[C@H](N)C(=O)N[C@@H](CC(C)C)C(=O)N[C@@H](CCCCN)C(=O)N[C@@H](CCCCN)C(=O)N[C@@H](CC(C)C)C(=O)N[C@@H](CO)C(=O)N1CCC[C@H]1C(=O)N[C@@H](Cc1ccc(O)cc1)C(=O)N[C@@H](Cc1ccccc1)C(=O)O` [3102.0903] (H-ILKKLSPYF-OH), for which the IC50 was 1.2 nM.

Molecule `CC[C@H](C)[C@H](NC(=O)[C@H](C)NC(=O)[C@H](CC(N)=O)NC(=O)[C@H](Cc1ccccc1)NC(=O)[C@H](CC(C)C)NC(=O)[C@@H](N)Cc1ccc(O)cc1)C(=O)N[C@@H](CCC(=O)O)C(=O)N[C@H](C(=O)N[C@@H](CCSC)C(=O)O)[C@@H](C)O` [3102.0905] (H-YLFNAIETM-OH) yielded an IC50 of 1.4 nM.

Take `CSCC[C@H](N)C(=O)N[C@@H](Cc1ccc(O)cc1)C(=O)N[C@@H](CCCCN)C(=O)N[C@@H](CCCCN)C(=O)N[C@@H](C)C(=O)N[C@@H](CCC(=O)O)C(=O)N[C@@H](C)C(=O)N[C@@H](CO)C(=O)N[C@@H](Cc1ccccc1)C(=O)O` [3102.0906] (H-MYKKAEASF-OH): inhibition was half-maximal at 69 nM (IC50).

`CC[C@H](C)[C@H](NC(=O)[C@H](Cc1ccccc1)NC(=O)[C@@H](N)Cc1ccc(O)cc1)C(=O)N[C@@H](CCCCN)C(=O)N[C@@H](Cc1c[nH]cn1)C(=O)N[C@H](C(=O)N[C@@H](CC(C)C)C(=O)N[C@@H](C)C(=O)N[C@@H](Cc1ccccc1)C(=O)O)C(C)C` [3102.0907] (H-YFIKHVLAF-OH) gave an IC50 of 2.5 nM.

For the molecule `CC[C@H](C)[C@H](NC(=O)[C@H](CCC(=O)O)NC(=O)[C@H](CS)NC(=O)[C@H](CCCNC(=N)N)NC(=O)[C@@H](NC(=O)[C@@H](N)CCCCN)[C@@H](C)CC)C(=O)N[C@H](C(=O)N[C@@H](CO)C(=O)N[C@@H](Cc1ccccc1)C(=O)O)[C@@H](C)O` [3102.0909] (H-KIRCEITSF-OH), 4.3 nM corresponded to half-maximal inhibition (IC50).

`CC[C@H](C)[C@H](NC(=O)[C@@H](N)CCC(=O)O)C(=O)N[C@@H](C)C(=O)N[C@@H](CCCCN)C(=O)N[C@@H](Cc1ccc(O)cc1)C(=O)NCC(=O)N[C@@H](Cc1c[nH]cn1)C(=O)N[C@@H](CO)C(=O)N[C@@H](Cc1ccccc1)C(=O)O` [3102.0911] (H-EIAKYGHSF-OH) had an IC50 of 58 nM.

The molecule `CSCC[C@H](NC(=O)[C@@H](N)CCCNC(=N)N)C(=O)N[C@@H](Cc1ccccc1)C(=O)N[C@@H](Cc1c[nH]cn1)C(=O)N[C@@H](Cc1ccccc1)C(=O)N[C@@H](Cc1ccccc1)C(=O)N[C@@H](CCC(=O)O)C(=O)N[C@@H](Cc1c[nH]cn1)C(=O)N[C@@H](CCC(=O)O)C(=O)O` [3102.0915] (H-RMFHFFEHE-OH) returned an IC50 of 67 nM.

Molecule `CC[C@H](C)[C@H](NC(=O)[C@@H]1CCCN1C(=O)[C@H](CCC(=O)O)NC(=O)[C@H](CC(N)=O)NC(=O)[C@H](CO)NC(=O)[C@H](CC(=O)O)NC(=O)[C@H](Cc1ccccc1)NC(=O)[C@H](CC(C)C)NC(=O)[C@@H](N)CC(C)C)C(=O)O` [3102.0916] (H-LLFDSNEPI-OH) had an IC50 of 16 nM.

`CC[C@H](C)[C@H](NC(=O)[C@H](C)NC(=O)[C@@H](N)Cc1ccccc1)C(=O)N[C@@H](CO)C(=O)N[C@@H](Cc1ccc(O)cc1)C(=O)N[C@@H](CS)C(=O)N[C@@H](CCCNC(=N)N)C(=O)N[C@@H](C)C(=O)N[C@@H](Cc1ccccc1)C(=O)O` [3102.0920] (H-FAISYCRAF-OH) came in with an IC50 of 76 nM.

`CSCC[C@H](NC(=O)[C@H](CCCNC(=N)N)NC(=O)[C@H](CS)NC(=O)[C@@H]1CCCN1C(=O)[C@H](CO)NC(=O)[C@@H](N)CCSC)C(=O)N[C@@H](Cc1ccccc1)C(=O)N[C@@H](CO)C(=O)N[C@@H](Cc1ccccc1)C(=O)O` [3102.0921] (H-MSPCRMFSF-OH) gave an IC50 of 17 nM.

Molecule `CC(C)C[C@H](NC(=O)[C@H](CO)NC(=O)[C@H](CCCCN)NC(=O)[C@H](CC(C)C)NC(=O)[C@@H](N)CO)C(=O)N[C@@H](Cc1ccc(O)cc1)C(=O)N[C@@H](CCC(=O)O)C(=O)N[C@@H](C)C(=O)N[C@@H](Cc1ccccc1)C(=O)O` [3102.0923] (H-SLKSLYEAF-OH) gave an IC50 of 20 nM.

Regarding `CC(C)C[C@H](NC(=O)[C@H](CS)NC(=O)[C@H](CCCCN)NC(=O)[C@H](CCCCN)NC(=O)[C@H](Cc1ccccc1)NC(=O)[C@H](CO)NC(=O)[C@@H](N)Cc1ccccc1)C(=O)N[C@H](C(=O)N[C@@H](Cc1ccc(O)cc1)C(=O)O)C(C)C` [3102.0925] (H-FSFKKCLVY-OH), inhibition was half-maximal at 4.7 nM (IC50).

In the case of `CC[C@H](C)[C@H](NC(=O)[C@H](CO)NC(=O)[C@@H](N)CCCNC(=N)N)C(=O)N[C@@H](CO)C(=O)N[C@@H](CCCNC(=N)N)C(=O)N[C@H](C(=O)N[C@@H](CCC(=O)O)C(=O)N[C@@H](CC(N)=O)C(=O)N[C@@H](Cc1ccccc1)C(=O)O)[C@@H](C)O` [3102.0929] (H-RSISRTENF-OH), the IC50 turned out to be 4.8 nM.

Consider `CC[C@H](C)[C@H](N)C(=O)N[C@@H](CO)C(=O)N[C@@H](CCCCN)C(=O)N[C@@H](CC(N)=O)C(=O)N[C@@H](C)C(=O)N[C@@H](Cc1ccccc1)C(=O)N[C@@H](CO)C(=O)N[C@@H](CS)C(=O)N[C@@H](CCSC)C(=O)O` [3102.0935] (H-ISKNAFSCM-OH), for which the IC50 turned out to be 78 nM.

Regarding `CSCC[C@H](NC(=O)[C@H](CCC(N)=O)NC(=O)[C@H](CO)NC(=O)[C@H](CO)NC(=O)[C@@H](N)CC(C)C)C(=O)N[C@H](C(=O)N[C@@H](CO)C(=O)N[C@H](C(=O)N[C@@H](Cc1ccccc1)C(=O)O)[C@@H](C)O)[C@@H](C)O` [3102.0940] (H-LSSQMTSTF-OH), inhibition was half-maximal at 4 nM (IC50).

Source of the values: article PMC2248166, “Quantitative peptide binding motifs for 19 human and mouse MHC class I molecules derived using positional scanning combinatorial peptide libraries” (Immunome Research, 2008).
